From patent US20080286357A1, “MULTI-FUNCTIONAL PARTICULATE DELIVERY SYSTEM FOR PHARMACOLOGICALLY ACTIVE INGREDIENTS” (Balchem Corporation, priority 2007, published 2008)

Assay: Flow and bulk density of powder blend
Format: physicochemical
Protocol: The procedure is described in USP<616<Bulk Density and Tapped Density.
CabOSil with ubidecarenone is co-sieved through a 30-mesh. The ProSolv HD90 and multi-functional particulate system are added. The powder mix is blended at maximum speed for ten minutes. The powder mix is then sieved through a 40-mesh. Polyplasdone Crospovidone is added, and the mixture is blended at maximum speed for two minutes Finally, Mg-stearate is added, and the mixture is blended at maximum speed for two minutes.

COC1=C(OC)C(=O)C(C/C=C(\C)CC/C=C(\C)CC/C=C(\C)CC/C=C(\C)CC/C=C(\C)CC/C=C(\C)CC/C=C(\C)CC/C=C(\C)CC/C=C(\C)CCC=C(C)C)=C(C)C1=O [Ubidecarenone]
flow (in words): does not flow
